Source: article PMC7076358, “Absorption and Intestinal Metabolic Profile of Oleocanthal in Rats” (Pharmaceutics, 2020)
Read-outs that look alike come from different tables or passages of the source.

Columns and labels:
[1] = tested on: Caco-2 cell monolayers; parameters: method as in PMID 10745093; settings: differentiated Caco-2 cell monolayers; cited from earlier work
[2] = source not stated; cited from earlier work
[3] = in situ single-pass intestinal perfusion with simultaneous luminal perfusate and mesenteric blood sampling; assay type: in vivo, Sprague–Dawley rats
Protocol: LEV was assayed at 3 mg/mL, according to its high dose strength, in 250 mL TM.
Single-pass intestinal perfusion was performed in anesthetized rats according to the method described by Brouwers et al. [15], with simultaneous sampling from the luminal perfusate and mesenteric blood.
Anaesthesia was induced by intraperitoneal injection of pentobarbital sodium (60 mg/kg BW). The rats were then placed on a homeothermic blanket to maintain the body temperature at 37 °C. First, under general anaesthesia, the left jugular vein was cannulated with a heparinised (50 IU/mL) 0.5 × 0.9 mm/20 G catheter (Cavafix® MT, Braun Medical S.A., Barcelona, Spain) for infusion of donor blood. Second, a midline abdominal incision was made to isolate approximately 10 cm of the ileum using the ileocecal junction as a point of reference. Two glass cannulas (o.d. 4 mm, i.d. 3 mm, Duran®, Vidrafoc, Barcelona, Spain) were inserted at the proximal and distal ends of the isolated segment. The segment was rinsed by injection TM to remove the content until the solution came out clear. Next, the inlet cannula was connected to polyethylene tubing (i.d. 3 mm), which aspirated the tested solution (OLC or LEV) using a peristaltic pump (Minipuls3, M312 model, Gilson, Le Bel, France). Finally, the mesenteric vein draining blood from the intestinal segment was cannulated by inserting approximately 1 cm of a catheter (BD Insyte-W 24GA 0.7 × 19 mm, Becton Dickinson, Sangüesa S.A., Cornellà de Llobregat, Spain). The cannula was secured with a knot and connected to a silicone tube (i.d. 0.64 mm; o.d. 1.19 mm, Freudenberg Medical Europe, VWR International Eurolab S.L., Llinars del Vallés, Spain) that allowed blood to flow into the heparinised tubes. Care was taken to handle the small intestine gently to maintain normal blood supply. […]
The experiments were carried out in a laboratory room with infrared light to avoid oxidation of OLC. […] At the end of the experiment, the animal was euthanised by injection of air into the jugular, and the length of the intestinal segment was measured. […]

[4] = parameters: method as in PMID 15760043, PMID 9068926; settings: cited from earlier work
[5] = parameters: method as in PMID 11110859; settings: rat intestine perfused, cited from earlier work

Question: With `OCCc1ccc(O)c(O)c1` [hydroxytyrosol] as the molecule, how does the permeability [1] read?
Answer: Its permeability is 12.4 ± 0.9 × 10^−6 cm/s.

Question: With `C/C=C(/C=O)[C@@H](CC=O)CC(=O)OCCc1ccc(O)cc1` [OLC, oleocanthal] as the molecule, how does the logP [2] read?
Answer: The logP was 1.15.

Question: And the Peff at 60 min ([3]; Sprague-Dawley, pH 7, rat ileum, disappearance from lumen, OLC 0.1 mg/mL, LEV 3 mg/mL, flow 1 mL/min, mean ± SD, n = 4, normalised to 10-cm segment, read-out: Peff (effective permeability coefficient))?
Answer: Its Peff at 60 min is 22.3 ± 31.6 ×10⁻⁶ cm/s.

Question: And the Papp at 60 min ([3]; Sprague-Dawley, rat, pH 7, rat ileum, appearance in mesenteric blood, OLC 0.1 mg/mL, LEV 3 mg/mL, mean ± SD, n = 4, normalised to 10-cm segment, read-out: Papp (apparent permeability coefficient))?
Answer: Its Papp at 60 min is 4.12 ± 2.33 ×10⁻⁶ cm/s.

Question: And the absorption ([3]; rat in situ intestinal perfusion, stated in conclusions)?
Answer: Its absorption is 16%.

Question: For `C[C@H]1COc2c(N3CCN(C)CC3)c(F)cc3c(=O)c(C(=O)O)cn1c23` [LEV, levofloxacin], which oral bioavailability [4] is on record?
Answer: The oral bioavailability was roughly 100%.

Question: Which results are given for `C/C=C1/[C@H](O[C@@H]2O[C@H](CO)[C@@H](O)[C@H](O)[C@H]2O)OC=C(C(=O)OC)[C@H]1CC(=O)OCCc1ccc(O)c(O)c1` [oleuropein]?
Answer: intestinal permeability coefficient ([5]; hypotonic conditions): 5.92 ×10⁻⁶ cm/s; intestinal permeability coefficient ([5]; iso-osmotic conditions): 1.47 ×10⁻⁶ cm/s
